Results on five molecules are retold here after patent publication US8735602B2, “Pharmaceutically acceptable salts of thymodepressin and processes for their manufacture” (Apotex Technologies inc., priority 2006, dated 2014).

Assay type in all cases: physicochemical
Data set [1] is described as follows: Hygroscopicity of the freeze-dried solid in air.
A short description of data set [2]: Speciation plot (FIG. 5) calculation of solution pH from experimentally determined pKas. As to conditions: according to the speciation plot calculation. From the text: A pharmaceutically acceptable salt of a drug substance is one that is chemically stable and can be used in a pharmaceutical composition. Unlike simple aromatic hydrocarbons, thymodepressin is a dipeptide with multi-functional groups. The dipeptide D-isoglutamyl-D-tryptophan has an alpha amine, two carboxylic acids and an indole nitrogen within the same molecule. An ideal salt should be one that has a solution pH close to about 7 and in the low basic pH range. Through investigations in our laboratory, in the search for a novel salt to address the shortcomings of the disodium salt of D-isoglutamyl-D-tryptophan, the speciation plot (FIG. 5) was used to determine salts with ideal solution pH and solubility that are suitable for pharmaceutical formulations. FIG. 5 is a speciation plot of H-D-iGlu-D-Trp-OH from pH 0 to 12 using experimentally determined pKas. In FIG. 5, LH2=H-D-iGlu-D-Trp-OH, LH=mono carboxylic acid salt, L=dicarboxylic acid salt, and LH3=acid addition salt of H-D-iGlu-D-Trp-OH. The X axis provides the pH of the solution, whereas the Y axis reports the amount of the species present at a particular pH. From our practical experience, we use 6 ml of water per gm of H-D-iGlu-D-Trp-OH for isolation purposes, which corresponds to a concentration of 0.5 M solution.
According to the speciation plot calculation shown in FIG. 5, the diacid form has a pH of about 2.7 to about 3 in solution. The metal salt of formula I wherein M is potassium or lithium; the divalent salt of formula II wherein B is calcium or magnesium has a solution pH close to about 7.
We have applied the speciation plot (FIG. 5) to compute the pH range of the salt forms of the dipeptide H-D-iGlu-D-Trp-OH. […] This is particular ideal for liquid formulation, sublingual tablets, nasal drops and sprays.

Data set [3] in a line: Stability of the solid salt. The source says: It is extremely hygroscopic and very difficult to weigh for formulation research. In solution, as per the speciation plot (FIG. 5), the pH is above 9.0 and the solution pH must be adjusted to about 7.0 to about 7.4 in a formulation preparation.
Data set [4] can be described thus: Percent crystallinity by X-ray powder diffraction. To be noted: XRPD, D8 system with 2D detector; not absolute values. Here is the method: The percent crystallinity is commonly measured as a ratio between the diffraction portion from the crystalline part of the sample, Ic, and the total diffraction from the same sample, IC+B. The values of IC can be obtained after an appropriate subtraction of the scattering portion from the background, IB.
For such kind of analyses, the diffraction is measured as total area under the profile of: • the whole pattern as it is collected (one may correct for the air scattering) −ITOTAL* • the peaks only (IC) after subtraction of the background (correction for the air scattering), • the background only with correction for air scattering −(IB).
However, in this study, due to the technical problems with the D5000 point-detector diffraction system, all the samples were analyzed on a D8 system, equipped with an area, 2D detector, and the above-mentioned approach could not be applied. Therefore, another technique has been developed for measuring the crystallinity of samples analyzed on such system. Only a narrow part of the 2D diffraction image is chosen with a single peak at the centre and a neighbour area where the background will be measured.
All samples were measured for calculation of their crystallinity using a narrow range of 21°-25° with a strongest reflection at […]. The background was subtracted as linear, and an empirical correlation coefficient of 2.5 was applied.

As to “disodium salt of D-isoglutamyl-D-tryptophan”, the hygroscopicity result in data set [1] was “extremely hygroscopic turning into a gel in a matter of minutes in air”. The pH in solution result in data set [2] is “above 9.0”. For the same molecule, the “stability as a solid” value in data set [3] is on record as “less stable chemical entity as a solid”.
As to “D-isoglutamyl-D-tryptophan calcium salt (2:1) [calcium salt of formula II]”, in data set [2], the pH in solution entry is “about 7”. The molecule further showed a percent crystallinity in data set [4] of at most 67%.
For “Calcium Salt of D-isoglutamyl-D-tryptophan (1:2) [Example 8]”, in data set [4], the percent crystallinity is 18-20%.
Regarding “D-isoglutamyl-D-tryptophan magnesium salt (2:1) [magnesium salt of formula II]”, the pH in solution result in data set [2] is given as “about 7”.
Still for that read-out and setting: under `NC(=O)[C@H](N)CCC(=O)N[C@H](Cc1c[nH]c2ccccc12)C(=O)[O-].[K+]` [potassium salt of formula I, D-isoglutamyl-D-tryptophan potassium salt (1:1)] stands “about 7”.
